Laboratory results from patent publication US10086085B2, “Bifunctional cytotoxic agents” (priority 2014, dated 2018).

What was measured:
[1] = test system: HL60 (leukemia); assay: Cytotoxicity assay for payloads (MTS), HL-60 cells; format: cell-based; conditions: Homo sapiens, 96 h, incubated with compounds for four days, MTS absorbance 490 nm
Outline: (§1)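 Cells in RPMI 1640 with 10% FBS exposed to compounds for four days at 10 concentrations in duplicate. Viability read by MTS absorbance at 490 nm after 1.5 h, as % of untreated controls; IC50 from four-parameter logistic fit.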

[2] = test system: N87 (human gastric carcinoma derived from metastatic liver site); assay: Cytotoxicity assay for payloads (MTS), N87 cells; format: cell-based; conditions: Homo sapiens, 96 h; N87 cells, incubated with compounds for four days, MTS absorbance 490 nm; read-out: N87 IC50
Outline: as §1

SMILES	IC50 [1]	IC50 [2]
CC(=O)Oc1cc2c(c3ccccc13)[C@H](CCl)CN2C(=O)C12CC(CC(=O)N3C[C@@H](CCl)c4c3cc(O)c3ccccc43)(C1)C2 [Compound 162, (1S)-1-(chloromethyl)-3-[(3-{2-[(1S)-1-(chloromethyl)-5-hydroxy-1,2-dihydro-3H-benzo[e]indol-3-yl]-2-oxoethyl}bicyclo[1.1.1]pent-1-yl)carbonyl]-2,3-dihydro-1H-benzo[e]indol-5-yl acetate]	20 pM	749 pM
O=C(N1C[C@@H](CCl)c2c1cc(O)c1ccccc21)C12CC(C(=O)N3C[C@@H](CCl)c4c3cc(OP(=O)(O)O)c3ccccc43)(C1)C2 [Compound 163, (1S)-1-(chloromethyl)-3-[(3-{[(1S)-1-(chloromethyl)-5-hydroxy-1,2-dihydro-3H-benzo[e]indol-3-yl]carbonyl}bicyclo[1.1.1]pent-1-yl)carbonyl]-2,3-dihydro-1H-benzo[e]indol-5-yl dihydrogen phosphate]	179 pM	6900 pM
Cc1c[nH]c2c(O)cc3c(c12)[C@H](CCl)CN3C(=O)CNCC(=O)N1C[C@@H](CCl)c2c1cc(O)c1[nH]cc(C)c21 [Compound 165, 2,2′-iminobis{1-[(1S)-1-(chloromethyl)-5-hydroxy-8-methyl-1,6-dihydropyrrolo[3,2-e]indol-3(2H)-yl]ethanone}]	107 pM	8260 pM
NC(CC(=O)N1C[C@H]2C[C@@]23C1=CC(=O)c1ccccc13)CC(=O)N1C[C@H]2C[C@@]23C1=CC(=O)c1ccccc13 [Compound 166, 3-amino-1,5-bis[(1aS,9bR)-5-oxo-1a,2-dihydro-1H-benzo[e]cyclopropa[c]indol-3(5H)-yl]pentane-1,5-dione]	659 pM	5690 pM
N[C@@H](CCC(=O)N1C[C@H]2C[C@@]23C1=CC(=O)c1ccccc13)C(=O)N1C[C@H]2C[C@@]23C1=CC(=O)c1ccccc13 [Compound 167, (2S)-2-amino-1,5-bis[(1aS,9bR)-5-oxo-1a,2-dihydro-1H-benzo[e]cyclopropa[c]indol-3(5H)-yl]pentane-1,5-dione]	1450 pM	≥ 10000 pM
Cc1c[nH]c2c(O)cc3c(c12)[C@H](CCl)CN3C(=O)CN(CC(=O)N1C[C@@H](CCl)c2c1cc(O)c1[nH]cc(C)c21)C(=O)OCC1c2ccccc2-c2ccccc21 [Compound 169, 9H-fluoren-9-ylmethyl bis{2-[(1S)-1-(chloromethyl)-5-hydroxy-8-methyl-1,6-dihydropyrrolo[3,2-e]indol-3(2H)-yl]-2-oxoethyl}carbamate]	388 pM	9820 pM
O=C(c1ccc(C(=O)N2C[C@@H](CCl)c3c2cc(OP(=O)(O)O)c2ccccc32)s1)N1C[C@@H](CCl)c2c1cc(O)c1ccccc21 [Compound 171, (1S)-1-(chloromethyl)-3-[(5-{[(1S)-1-(chloromethyl)-5-hydroxy-1,2-dihydro-3H-benzo[e]indol-3-yl]carbonyl}thiophen-2-yl)carbonyl]-2,3-dihydro-1H-benzo[e]indol-5-yl dihydrogen phosphate]	131 pM	1550 pM
O=C(OCC1c2ccccc2-c2ccccc21)N(CC(=O)N1C[C@@H](CCl)c2c1cc(O)c1ccccc21)CC(=O)N1C[C@@H](CCl)c2c1cc(O)c1ccccc21 [Compound 172, 9H-fluoren-9-ylmethyl bis{2-[(1S)-1-(chloromethyl)-5-hydroxy-1,2-dihydro-3H-benzo[e]indol-3-yl]-2-oxoethyl}carbamate]	474 pM	13800 pM
O=C(CNCC(=O)N1C[C@@H](CCl)c2c1cc(OP(=O)(O)O)c1ccccc21)N1C[C@@H](CCl)c2c1cc(OP(=O)(O)O)c1ccccc21 [Compound 173, iminobis[(1-oxoethane-2,1-diyl)(1S)-1-(chloromethyl)-1,2-dihydro-3H-benzo[e]indole-3,5-diyl] bis[dihydrogen (phosphate)]]	169 pM	13100 pM
O=C([C@@H]1CNC[C@H](C(=O)N2C[C@@H](CCl)c3c2cc(O)c2ccccc32)C1)N1C[C@@H](CCl)c2c1cc(O)c1ccccc21 [Compound 174, (3R,5S)-piperidine-3,5-diylbis{[(1S)-1-(chloromethyl)-5-hydroxy-1,2-dihydro-3H-benzo[e]indol-3-yl]methanone}]	1970 pM	87900 pM
CC(=O)Oc1cc2c(c3ccccc13)[C@H](CCl)CN2C(=O)c1ccc(C(=O)N2C[C@@H](CCl)c3c2cc(OC(C)=O)c2ccccc32)cc1 [Compound 176, benzene-1,4-diylbis[carbonyl(1S)-1-(chloromethyl)-1,2-dihydro-3H-benzo[e]indole-3,5-diyl] diacetate]	199 pM	26400 pM
CC(=O)Oc1cc2c(c3ccccc13)[C@H](CCl)CN2C(=O)Cc1cccc(CC(=O)N2C[C@@H](CCl)c3c2cc(OC(C)=O)c2ccccc32)c1 [Compound 177, benzene-1,3-diylbis[(1-oxoethane-2,1-diyl)(1S)-1-(chloromethyl)-1,2-dihydro-3H-benzo[e]indole-3,5-diyl] diacetate]	196 pM	2120 pM
CC(=O)Oc1cc2c(c3ccccc13)[C@H](CCl)CN2C(=O)Cc1cc(CC(=O)N2C[C@@H](CCl)c3c2cc(OC(C)=O)c2ccccc32)cc([N+](=O)[O-])c1 [Compound 178, (5-nitrobenzene-1,3-diyl)bis[(1-oxoethane-2,1-diyl)(1S)-1-(chloromethyl)-1,2-dihydro-3H-benzo[e]indole-3,5-diyl] diacetate]	36 pM	484 pM
O=C(O)[C@H]1O[C@@H](Oc2cc3c(c4ccccc24)[C@H](CCl)CN3C(=O)CC23CC(C(=O)N4C[C@@H](CCl)c5c4cc(O)c4ccccc54)(C2)C3)[C@H](O)[C@@H](O)[C@@H]1O [Compound 179, (1S)-1-(chloromethyl)-3-[(3-{[(1S)-1-(chloromethyl)-5-hydroxy-1,2-dihydro-3H-benzo[e]indol-3-yl]carbonyl}bicyclo[1.1.1]pent-1-yl)acetyl]-2,3-dihydro-1H-benzo[e]indol-5-yl beta-D-glucopyranosiduronic acid]	14300 pM	173000 pM
Cc1c[nH]c2c(O)cc3c(c12)[C@H](CCl)CN3C(=O)C12CC(C(=O)N3C[C@@H](CCl)c4c3cc(N)c3ccccc43)(C1)C2 [Compound 180, [(1S)-5-amino-1-(chloromethyl)-1,2-dihydro-3H-benzo[e]indol-3-yl](3-{[(1S)-1-(chloromethyl)-5-hydroxy-8-methyl-1,6-dihydropyrrolo[3,2-e]indol-3(2H)-yl]carbonyl}bicyclo[1.1.1]pent-1-yl)methanone]	48 pM	425 pM
